Measured values reported in US9861616B2, “Methods for treating respiratory diseases and formulations therefor” (priority 2013, dated 2018).
Values after ≈ are worked out from the molar mass of the structure shown. Read-outs that look alike come from different tables or passages of the source.

Assays:
[1] = tested on: P. aeruginosa (PA); experiment: MIC by microdilution, 36 clinical and laboratory strains with known efflux phenotype; assay type: cell-based
Experimental: (§1) MICs of 36 clinical and laboratory strains of PA with known efflux phenotype are measured by microdilution in cation-adjusted Muller-Hinton broth (CA-MHB) or in RPMI medium (commonly used in eukaryotic cell culture). Phe-Arg-β-naphthylamide (PaβN, 50 mg/L) and EGTA 5 mM are used to inhibit efflux pumps and alter OM integrity, respectively. P. aeruginosa strain ATCC PAO1 is used as reference. PA12 is a clinical strain overexpressing the 4 main efflux systems (MexAB, MexCD, MexEF, MexXY), PA403 is a laboratory strain deleted in the genes coding for the 4 efflux systems. A series of reference strains or of clinical isolates for which the expression of genes coding for efflux pumps is known is also used for MICs determinations. MICs are measured by microdilution in MH broth or in RPMI medium (used for eukaryotic cells culture) supplemented with 10% of fetal calf serum, or in MH broth supplemented by increasing amounts of serum. EGTA (5 mM) was used as a chelating agent (disrupting outer membrane integrity) and PaβN (50 mg/L) as an unspecific efflux inhibitor.

[2] = tested on: P. aeruginosa PA403; experiment: MIC by microdilution with PaβN or EGTA, efflux-deleted laboratory strain; assay type: cell-based; conditions: Pseudomonas aeruginosa, read-out: MIC
Experimental: as §1, with “The compounds described herein are poor substrates of efflux pumps expressed in P. aeruginosa (PA). MICs of” for “MICs of”

[3] = tested on: IL-8 (CXCL8) release; experiment: LPS-induced IL-8 (CXCL8) release in PMA-differentiated U937 cells (ELISA); assay type: cell-based, human; conditions: at 100 μM
Experimental: Effects of macrolides on lipopolysaccharide (LPS)-induced CXCL8 release in PMA-differentiated U937 cells. […] LPS-induced CXCL8 release was evaluated by ELISA. Values represent means of three experiments±SEM. ^##p<0.01 (vs. non-treatment control), *p<0.05, **p<0.01 (vs. treatment with LPS only).
The human monocytic cell line U937 was obtained from the American Type Culture Collection (ATCC, Rockville, Md.). PBMCs from COPD patients were obtained from Brompton hospital and separated by AccuSPIN (Sigma-Aldrich). Cells were cultured in complete growth medium (RPMI 1640) (Sigma-Aldrich) supplemented with 10% fetal bovine serum (FBS) and 1% L-glutamine at 37° C. in a humidified atmosphere with 5% CO2. U937 cells were differentiated into adherent macrophage-like morphology by exposure to PMA (50 ng/mL) for 48 hrs in complete growth medium. Cell viability was assessed microscopically by trypan blue staining. Cell toxicity was determined by MTT assay as needed. This study was approved by the ethics committee of the Royal Brompton Hospitals, and all subjects gave written informed consent.
TNFα and IL-8 concentrations in the supernatant of cell cultures were determined by sandwich ELISA according to the manufacturer's instructions (R&D Systems Europe, Abingdon, UK).
The results were expressed as the mean±SEM. Comparisons of data in two groups were performed using the Student's t test or the Wilcoxon signed rank test. Multiple comparisons were made by one-way ANOVA with post hoc test (Dunnett's) as appropriate. The difference was considered significant at p<0.05. IC50 values (50% inhibitory concentration) for macrolides for production of cytokines or MMP9 were calculated using Prism 4.0 (GraphPad Software Inc., San Diego, Calif.).

Compound: CC[C@H]1OC(=O)[C@H](C)C(=O)[C@H](C)[C@@H](O[C@@H]2O[C@H](C)C[C@H](N(C)C)[C@H]2O)[C@](C)(OC)C[C@@H](C)C(=O)[C@H](C)[C@H]2N(CCCCn3cnc(-c4cccnc4)c3)C(=O)O[C@]12C [TEL, telithromycin]
- MIC ([1]; strain 1, efflux AB+, MHB): 128 mg/L (≈ 158 µM)
- MIC ([1]; strain 1, efflux AB+, RPMI): 4 mg/L (≈ 4.93 µM)
- MIC ([1]; strain 2, efflux CD+, MHB): 256 mg/L (≈ 315 µM)
- MIC ([1]; strain 2, efflux CD+, RPMI): 16 mg/L (≈ 19.7 µM)
- MIC ([1]; strain 3, efflux EF+, MHB): 64 mg/L (≈ 78.8 µM)
- MIC ([1]; strain 3, efflux EF+, RPMI): 0.25 mg/L (≈ 0.308 µM)
- MIC ([1]; strain 4, efflux XY+, MHB): 128 mg/L (≈ 158 µM)
- MIC ([1]; strain 4, efflux XY+, RPMI): 4 mg/L (≈ 4.93 µM)
- MIC ([1]; strain 11, efflux AB + CD+, MHB): 64 mg/L
- MIC ([1]; strain 11, efflux AB + CD+, RPMI): 1 mg/L
- MIC ([1]; strain 12, efflux AB + CD + EF + XY+, MHB): 128 mg/L
- MIC ([1]; strain 12, efflux AB + CD + EF + XY+, RPMI): 4 mg/L
- MIC ([1]; strain 16, efflux AB + XY+, MHB): 128 mg/L
- MIC ([1]; strain 16, efflux AB + XY+, RPMI): 4 mg/L
- MIC ([1]; strain 21, efflux AB+, MHB): 64 mg/L (≈ 78.8 µM)
- MIC ([1]; strain 21, efflux AB+, RPMI): 2 mg/L (≈ 2.46 µM)
- MIC ([1]; strain 22, efflux XY+, MHB): 128 mg/L (≈ 158 µM)
- MIC ([1]; strain 22, efflux XY+, RPMI): 2 mg/L (≈ 2.46 µM)
- MIC ([1]; strain 40, efflux EF+, MHB): 64 mg/L (≈ 78.8 µM)
- MIC ([1]; strain 40, efflux EF+, RPMI): 2 mg/L (≈ 2.46 µM)
- MIC ([1]; strain 41, efflux CD+, MHB): 256 mg/L (≈ 315 µM)
- MIC ([1]; strain 41, efflux CD+, RPMI): 4 mg/L (≈ 4.93 µM)
- MIC ([1]; strain 48, efflux CD + EF + XY+, MHB): 128 mg/L
- MIC ([1]; strain 48, efflux CD + EF + XY+, RPMI): 8 mg/L
- MIC ([1]; strain 49, efflux CD + EF + XY+, MHB): 128 mg/L
- MIC ([1]; strain 49, efflux CD + EF + XY+, RPMI): 4 mg/L
- MIC ([1]; strain 63, efflux AB + EF + XY+, MHB): 128 mg/L
- MIC ([1]; strain 63, efflux AB + EF + XY+, RPMI): 4 mg/L
- MIC ([1]; strain 68, efflux AB + XY+, MHB): 128 mg/L
- MIC ([1]; strain 68, efflux AB + XY+, RPMI): 4 mg/L
- MIC ([1]; strain 133, efflux EF + XY+, MHB): 128 mg/L
- MIC ([1]; strain 133, efflux EF + XY+, RPMI): 4 mg/L
- MIC ([1]; strain 156, efflux EF + XY+, MHB): 128 mg/L
- MIC ([1]; strain 156, efflux EF + XY+, RPMI): 2 mg/L
- MIC ([1]; strain 168B, efflux CD + XY+, MHB): 256 mg/L
- MIC ([1]; strain 168B, efflux CD + XY+, RPMI): 4 mg/L
- MIC ([1]; strain 207, efflux AB + EF + XY+, MHB): 128 mg/L
- MIC ([1]; strain 207, efflux AB + EF + XY+, RPMI): 4 mg/L
- MIC ([1]; strain 266B, efflux AB + CD+, MHB): 256 mg/L
- MIC ([1]; strain 266B, efflux AB + CD+, RPMI): 4 mg/L
- MIC ([1]; strain 333A, efflux AB + EF+, MHB): 64 mg/L
- MIC ([1]; strain 333A, efflux AB + EF+, RPMI): 2 mg/L
- MIC ([1]; strain 335, efflux AB + EF+, MHB): 128 mg/L
- MIC ([1]; strain 335, efflux AB + EF+, RPMI): 4 mg/L
- MIC ([1]; strain 391, efflux EF−, MHB): 64 mg/L (≈ 78.8 µM)
- MIC ([1]; strain 391, efflux EF−, RPMI): 2 mg/L (≈ 2.46 µM)
- MIC ([1]; strain 392, efflux CD−, MHB): 32 mg/L (≈ 39.4 µM)
- MIC ([1]; strain 392, efflux CD−, RPMI): 0.5 mg/L (≈ 0.616 µM)
- MIC ([1]; strain 394, efflux XY−, MHB): 64 mg/L (≈ 78.8 µM)
- MIC ([1]; strain 394, efflux XY−, RPMI): 1 mg/L (≈ 1.23 µM)
- MIC ([1]; strain 395, efflux HI−, MHB): 32 mg/L (≈ 39.4 µM)
- MIC ([1]; strain 395, efflux HI−, RPMI): 2 mg/L (≈ 2.46 µM)
- MIC ([1]; strain 396, ompH−, MHB): 16 mg/L (≈ 19.7 µM)
- MIC ([1]; strain 396, ompH−, RPMI): 0.25 mg/L (≈ 0.308 µM)
- MIC ([1]; strain 397, efflux AB−, MHB): 8 mg/L (≈ 9.85 µM)
- MIC ([1]; strain 397, efflux AB−, RPMI): 0.03 mg/L (≈ 0.0369 µM)
- MIC ([1]; strain 398, efflux CD−, MHB): 8 mg/L (≈ 9.85 µM)
- MIC ([1]; strain 398, efflux CD−, RPMI): 0.25 mg/L (≈ 0.308 µM)
- MIC ([1]; strain 399, efflux AB − EF−, MHB): 4 mg/L (≈ 4.93 µM)
- MIC ([1]; strain 399, efflux AB − EF−, RPMI): 0.25 mg/L (≈ 0.308 µM)
- MIC ([1]; strain 400, efflux XY−, MHB): 8 mg/L (≈ 9.85 µM)
- MIC ([1]; strain 400, efflux XY−, RPMI): 0.25 mg/L (≈ 0.308 µM)
- MIC ([1]; strain 401, ompH−, MHB): 4 mg/L (≈ 4.93 µM)
- MIC ([1]; strain 401, ompH−, RPMI): 1 mg/L (≈ 1.23 µM)
- MIC ([1]; strain 403, efflux AB − CD − EF − XY−, MHB): 4 mg/L (≈ 4.93 µM)
- MIC ([1]; strain 403, efflux AB − CD − EF − XY−, RPMI): 0.5 mg/L (≈ 0.616 µM)
- MIC ([1]; strain 405, efflux AB − CD − EF − XY−, MHB): 8 mg/L (≈ 9.85 µM)
- MIC ([1]; strain 405, efflux AB − CD − EF − XY−, RPMI): 0.25 mg/L (≈ 0.308 µM)
- MIC ([1]; strain 434, efflux AB + CD + XY+, MHB): 128 mg/L
- MIC ([1]; strain 434, efflux AB + CD + XY+, RPMI): 4 mg/L
- MIC ([1]; strain PAO1, REFERENCE, MHB): 256 mg/L (≈ 315 µM)
- MIC ([1]; strain PAO1, REFERENCE, RPMI): 2 mg/L (≈ 2.46 µM)
- MIC ([2]; PA403, P403, CA-MHB, EGTA 5 mM): 2 mg/L (≈ 2.46 µM)
- MIC ([2]; PA403, P403, CA-MHB, control conditions (CT)): 4 mg/L (≈ 4.93 µM)
- MIC ([2]; PA403, P403, RPMI, EGTA 5 mM): 0.06 mg/L (≈ 0.0739 µM)
- MIC ([2]; PA403, P403, RPMI, PaβN 50 mg/L): 1 mg/L (≈ 1.23 µM)
- MIC ([2]; PA403, P403, RPMI, control conditions (CT)): 0.5 mg/L (≈ 0.616 µM)
- IC50 ([3]; Homo sapiens, U-937, read-out: IC50, LPS-induced IL-8 release: NE at 100 μM, U937 cells): > 100 µM
- effect on CXCL8 production [3]: did not inhibit
